The values below come from patent publication EP0187355A1, “Process for preparing beta-lactam antibiotics” (E.R. Squibb & Sons, Inc., priority 1981, dated 1982).

Structures can show the parent of a compound that is named as a salt. Where two headings read alike, the source gives them in different places.

Holding throughout (experiment): MIC, agar dilution
Type in all cases: cell-based

One experiment has as its system Micrococcus luteus, 2495. As to conditions: Micrococcus luteus, 2495, 18 h, K-10 agar, 10^4 CFU, 37°C. On the procedure:
(§1) The following methodology is used to determine the minimum inhibitory concentration (hereinafter referred to as MIC) of the […] of this invention.
(§2) The test organisms are grown in approximately 15-20 ml of Antibiotic Assay broth (Difco) by inoculating (in tubes) the broth with a loopful of the organism from a BHI (Difco) agar slant. The inoculated tubes are incubated at 37°C for 18 to 20 hours. These cultures are assumed to contain 10^9 colony forming units (hereinafter CFU) per milliliter. The cultures are diluted 1:100 to give a final inoculum level of 10^4 CFU; dilutions are made with K-10 broth^*.
(§3) The compounds are dissolved in the appropriate diluent at a concentration of 1000 µg/ml. Twofold dilutions are made in K-10 broth resulting in a range from 1000 µg/ml to 0.5 µg/ml. 1.5 ml of each dilution is placed into individual square petri dishes to which 13.5 ml of K-10 agar^** is added. The final drug concentration in the agar ranges from 100 µg/ml to 0.05 µg/ml. Organism growth control plates containing agar only are prepared and inoculated before and after the test plates. The organisms are applied to the agar surface of each plate with the Denley Multipoint Inoculator (which delivers approximately 0.001 ml of each organism) resulting in a final inoculum level of 10^4 CFU on the agar surface.
(§4) The MIC is the lowest concentration of compound inhibiting growth of the organism.
(§5) The number following each organism refers to the number of the organism in the collection of E. R. Squibb & Sons,.Inc., Princeton, New Jersey. […] The symbol "N.T." means not tested.

Experiment [1] deals with Streptococcus agalactiae, 9287. The note with it: K-10 agar, 10^4 CFU, 37°C; for MIC: Streptococcus agalactiae, 9287, 18 h. On the procedure:
as §1, §2, §3, §4, §5

Experiment [2] concerns Acinetobacter calcoaceticus, 8333. As to conditions: Acinetobacter calcoaceticus, 8333, 18 h, K-10 agar, 10^4 CFU, 37°C. The method, then:
as §1, §2, §3
(§6) The plates are incubated at 37 °C for 18 hours and the MIC's are determined. The MIC is the lowest concentration of compound inhibiting growth of the organism.
(§7) The tables that follow are tabulated results obtained when the B-lactams of this invention are tested against various organisms. The number following each organism refers to the number of the organism in the collection of E. R. Squibb & Sons,.Inc., Princeton, New Jersey. […] The symbol "N.T." means not tested.

Experiment [3] relates to Staphylococcus aureus, 2399. As to conditions: Staphylococcus aureus, 2399, 18 h. On the procedure:
as §1, §2, §3, §6, §7

For experiment [4], the system named is Staphylococcus aureus, 2400. The method, then: as §1, §2, §3, §6, §7
The subject of experiment [5] is Klebsiella pneumoniae, 9527. The note with it: Klebsiella pneumoniae, 9527, 18 h, K-10 agar, 10^4 CFU, 37°C. On the procedure:
as §1, §2, §3, §6, §7

The test system of experiment [6] is Pseudomonas aeruginosa, 8329. As to conditions: K-10 agar, 10^4 CFU, 37°C. The method, then: as §1, §2, §3, §6, §7
In experiment [7] the test system is Pseudomonas aeruginosa, 9545. The note with it: Pseudomonas aeruginosa, 9545, 18 h, K-10 agar, 10^4 CFU, 37°C. On the procedure:
as §1, §2, §3, §6, §7

The subject of experiment [8] is Staphylococcus aureus, 10165. The method, then:
as §1, §2, §3, §6, §7

For experiment [9], the system named is Serratia marcescens, 9783. As to conditions: Serratia marcescens, 9783, 18 h, K-10 agar, 10^4 CFU, 37°C. The method, then:
as §1, §2, §3, §6, §7

For experiment [10], the system named is Citrobacter freundii, 9518. As to conditions: K-10 agar, 10^4 CFU, 37°C. The method, then:
as §1, §2, §3, §6, §7

Experiment [11] has as its system Streptococcus faecalis, 9011. The method, then:
as §1, §2, §3, §6, §7

The next experiment deals with Escherichia coli, 10896. As to conditions: K-10 agar, 10^4 CFU, 37°C, 18 hours. The method, then:
as §1, §2, §3, §6, §7

For a further experiment, the system named is Proteus mirabilis, 3855. The note with it: Proteus mirabilis, 3855, 18 h, K-10 agar, 10^4 CFU, 37°C. The method, then:
as §1, §2, §3, §6, §7

For experiment [12], the system named is Enterobacter aerogenes, 10078. As to conditions: Klebsiella aerogenes, 10078, 18 h. The method, then:
as §1, §2, §3, §6, §7

For the next experiment, the system named is Salmonella typhosa, 1195. As to conditions: Salmonella enterica, TYPHOSA, 18 h, K-10 agar, 10^4 CFU, 37°C. On the procedure:
as §1, §2, §3, §6, §7

A further experiment relates to Escherichia coli, 10857. As to conditions: Escherichia coli, 10857, 18 h, K-10 agar, 10^4 CFU, 37°C. On the procedure: as §1, §2, §3, §6, §7
Another experiment relates to Escherichia coli, 8294. As to conditions: Escherichia coli, 8294, 18 h, K-10 agar, 10^4 CFU, 37°C. On the procedure:
as §1, §2, §3, §6, §7

Experiment [13] has as its system Klebsiella aerogenes, 10440. The note with it: K-10 agar, 10^4 CFU, 37°C. On the procedure: as §1, §2, §3, §6, §7
The test system of a further experiment is Shigella sonnei, 8449. The note with it: K-10 agar, 10^4 CFU, 37°C; for MIC: Shigella sonnei, 8449, 18 h. On the procedure:
as §1, §2, §3, §6, §7

The subject of experiment [14] is Staphylococcus aureus, 1276. The method, then:
as §1, §2, §3, §6, §7

The subject of a further experiment is Proteus rettgeri, 8479. As to conditions: K-10 agar, 10^4 CFU, 37°C. The method, then:
as §1, §2, §3, §6, §7

For another experiment, the system named is Proteus vulgaris, 9416. As to conditions: K-10 agar, 10^4 CFU, 37°C. The method, then:
as §1, §2, §3, §6, §7

Another experiment relates to Escherichia coli, 10909. The note with it: K-10 agar, 10^4 CFU, 37°C, 18 hours. On the procedure: as §1, §2, §3, §6, §7
Experiment [15] relates to Enterobacter cloacae, 8236. The note with it: Enterobacter cloacae, 8236, 18 h, K-10 agar, 10^4 CFU, 37°C. The method, then: as §1, §2, §3, §4, §5
The mark [16] stands for this setting: Staphylococcus aureus, 2400, 18 h.
Where [17] appears, read: Pseudomonas aeruginosa, 8329, 18 h.
The mark [18] stands for this setting: Staphylococcus aureus, 10165, 18 h.
The mark [19] stands for this setting: Citrobacter freundii, 9518, 18 h.
Where [20] appears, read: Enterococcus faecalis, 9011, 18 h.
The mark [21] stands for this setting: Klebsiella aerogenes, 10440, 18 h.
Where [22] appears, read: Staphylococcus aureus, 1276, 18 h.
[23] abbreviates: Providencia rettgeri, 8479, 18 h.

On to `C[C@@H]1[C@H](NC(=O)/C(=N\OC(C)(C)C(=O)O)c2csc(N)n2)C(=O)N1S(=O)(=O)O` [Example 16, [3α(Z),4α]-3-[[(2-Amino-4-thiazolyl) [(1-carboxy-1-methylethoxy)imino]acetyl]amino]-4-methyl-2-oxo-l-azetidinesulfonic acid, potassium salt (1:2)], for which the MIC in the experiment on Micrococcus luteus, 2495 is 25 µg/mL; in experiment [2], 50 µg/mL; in experiment [3], above 100 µg/mL; in experiment [4] (setting [16]) it was above 100 µg/mL; in [5], 0.1 µg/mL; in [6] (setting [17]), 3.1 µg/mL. For the same molecule, the MIC in experiment [7] is 0.8 µg/mL; in experiment [8] (setting [18]) it was above 100 µg/mL; in experiment [9] it was 0.4 µg/mL; in experiment [10] (setting [19]), 0.8 µg/mL; in experiment [11] (setting [20]), above 100 µg/mL; against Escherichia coli, 10896 it was 0.2 µg/mL. Moreover, the MIC is below 0.05 µg/mL with Proteus mirabilis, 3855; 0.8 µg/mL in [12]; below 0.05 µg/mL against Salmonella typhosa, 1195; 0.2 µg/mL against Escherichia coli, 10857; 0.4 µg/mL against Escherichia coli, 8294; 0.8 µg/mL in [13] (setting [21]). The MIC in experiment [14] (setting [22]) is above 100 µg/mL; in the experiment on Proteus rettgeri, 8479 (setting [23]), below 0.05 µg/mL; in the experiment with Proteus vulgaris, 9416 (Proteus vulgaris, 9416, 18 h), below 0.05 µg/mL; in the experiment on Escherichia coli, 10909 it was below 0.05 µg/mL. In addition, the M.I.C. in [1] (18 hours) was 50 µg/mL; in the experiment on Shigella sonnei, 8449 (18 hours), 0.4 µg/mL.
With `CC1C(NC(=O)C(=NO)c2csc(N)n2)C(=O)N1S(=O)(=O)O` (stereo not drawn) [Example 13, [3S-[3α(Z),4β]]-3-[[(2-amino-4-thiazolyl)-(hydroxyimino)acetyl]amino]-4-methyl-2-oxo-1-azetidinesulfonic acid, potassium salt], the MIC was 3.1 µg/mL in the experiment with Micrococcus luteus, 2495 (read-out: M.I.C.); 25 µg/mL in [1] (read-out: M.I.C.); 1.6 µg/mL in [15]; 12.5 µg/mL in experiment [2] (read-out: M.I.C.); 12.5 µg/mL in experiment [4] (Staphylococcus aureus, 2400, K-10 agar, 10^4 CFU, 37°C, 18 hours, read-out: M.I.C.); 1.6 µg/mL in experiment [5] (read-out: M.I.C.). The MIC is above 100 µg/mL in experiment [6] (18 hours, read-out: M.I.C.); 6.3 µg/mL in experiment [7] (read-out: M.I.C.); 25 µg/mL in experiment [8] (Staphylococcus aureus, 10165, K-10 agar, 10^4 CFU, 37°C, 18 hours, read-out: M.I.C.); 0.8 µg/mL in [9] (read-out: M.I.C.); 0.8 µg/mL in experiment [10] (18 hours, read-out: M.I.C.); above 100 µg/mL in [11] (Enterococcus faecalis, Streptococcus faecalis, 9011, K-10 agar, 10^4 CFU, 37°C, 18 hours, read-out: M.I.C.). The MIC in the experiment on Escherichia coli, 10896 worked out at 1.6 µg/mL; in the experiment on Proteus mirabilis, 3855 (read-out: M.I.C.), 1.6 µg/mL; in experiment [12] (Enterobacter aerogenes, 10078, K-10 agar, 10^4 CFU, 37°C, 18 hours, read-out: M.I.C.) it was 3.1 µg/mL; in the experiment on Salmonella typhosa, 1195, 0.8 µg/mL; in the experiment with Escherichia coli, 10857, 1.6 µg/mL; in the experiment on Escherichia coli, 8294, 1.6 µg/mL. The MIC in [13] (18 hours, read-out: M.I.C.) amounted to 1.6 µg/mL; against Shigella sonnei, 8449 it was 1.6 µg/mL; in experiment [14] (Staphylococcus aureus, 1276, K-10 agar, 10^4 CFU, 37°C, 18 hours, read-out: M.I.C.), 25 µg/mL; in the experiment on Proteus rettgeri, 8479 (Providencia rettgeri, 18 hours, read-out: M.I.C.), 0.1 µg/mL; in the experiment on Proteus vulgaris, 9416 (18 hours, read-out: M.I.C.), 0.8 µg/mL; with Escherichia coli, 10909 it was 0.8 µg/mL.
Take `CC1C(NC(=O)C(=NOC(C)(C)C(=O)O)c2csc(N)n2)C(=O)N1S(=O)(=O)O` (stereo not drawn) [Example 6, [3S-[3α (Z) ,4β]]3-[[(2-Amino-4-thiazolyl) [[1-carboxy-1-methylethoxy)imino]acetyl)amino)-4-methyl-2-oxo-1-azetidinesulfonic acid, dipotassium salt]: the MIC was 50 µg/mL in [1]; 100 µg/mL in experiment [2]; above 100 µg/mL in [3]; above 100 µg/mL in experiment [4] (setting [16]); below 0.05 µg/mL in experiment [5]; 3.1 µg/mL in [6] (setting [17]). Besides, the MIC is 0.8 µg/mL in experiment [7]; above 100 µg/mL in experiment [8] (setting [18]); 0.2 µg/mL in [9]; 0.4 µg/mL in experiment [10] (setting [19]); above 100 µg/mL in experiment [11] (setting [20]); 0.2 µg/mL with Escherichia coli, 10896. Also, the MIC was below 0.05 µg/mL with Proteus mirabilis, 3855; 0.4 µg/mL in experiment [12]; below 0.05 µg/mL in the experiment on Salmonella typhosa, 1195; below 0.05 µg/mL in the experiment with Escherichia coli, 10857; 0.4 µg/mL in the experiment on Escherichia coli, 8294; 0.4 µg/mL in experiment [13] (setting [21]). In addition, the MIC was 0.2 µg/mL against Shigella sonnei, 8449; above 100 µg/mL in [14] (setting [22]); below 0.05 µg/mL against Proteus rettgeri, 8479 (setting [23]); below 0.05 µg/mL in the experiment with Proteus vulgaris, 9416 (Proteus vulgaris, 9416, 18 h); below 0.05 µg/mL with Escherichia coli, 10909.
